{
  "source": "patent US20240327463A1",
  "about": "“ANTIBACTERIAL PRODUCTS” (priority 2017, published 2024)",
  "key": {"Enterococcus": {"system": "Enterococcus", "summary_of_the_method": "(§1)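 Twofold dilutions of DMSO-solubilised peptides (from 512 μg/ml) in Mueller Hinton; 24 h incubation, 37° C; visible growth scored.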"}, "MRSA ATCC 33591": {"system": "MRSA ATCC 33591", "details": "MRSA ATCC 33591", "summary_of_the_method": "as §1"}, "MRSA DM21455 (eye)": {"system": "MRSA DM21455 (eye)", "experiment": "microbe, parasite or virus in culture", "details": "DM21455 (eye)", "summary_of_the_method": "as §1"}, "VRE ATCC 700802": {"system": "VRE ATCC 700802", "experiment": "microbe, parasite or virus in culture", "details": "ATCC 700802", "summary_of_the_method": "as §1"}, "[1]": {"system": "Staphylococcus aureus ATCC 29213", "experiment": "microbe, parasite or virus in culture", "summary_of_the_method": "as §1"}, "MRSA DR 42412 (sputum)": {"system": "MRSA DR 42412 (sputum)", "experiment": "microbe, parasite or virus in culture", "details": "DR 42412 (sputum)", "summary_of_the_method": "as §1"}, "VRE ATCC 29212": {"system": "VRE ATCC 29212", "experiment": "microbe, parasite or virus in culture", "details": "ATCC 29212", "summary_of_the_method": "as §1"}, "MRSA ATCC 700699": {"system": "MRSA ATCC 700699", "experiment": "microbe, parasite or virus in culture", "details": "ATCC 700699", "summary_of_the_method": "as §1"}, "MRSA 1003": {"system": "MRSA 1003", "type": "cell-based, Staphylococcus aureus", "summary_of_the_method": "(§2)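 Values come from three repeat experiments. Growth and compound dilution both used Mueller Hinton broth, with the dilution series extended to well 11 and every incubation held at 37 °C.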"}, "[2]": {"system": "Bacillus Subtilis ATCC 6633", "type": "cell-based", "summary_of_the_method": "as §2"}, "[3]": {"system": "Bacillus Cereus ATCC 11788", "type": "cell-based", "summary_of_the_method": "as §2"}, "[4]": {"system": "Staphylococcus saprophyticus ATCC BAA 750", "type": "cell-based", "details": "ATCC BAA 750", "summary_of_the_method": "as §2"}, "[5]": {"system": "Staphylococcus saprophyticus ATCC 49907", "type": "cell-based", "details": "ATCC 49907", "summary_of_the_method": "as §2"}, "[6]": {"system": "Staphylococcus saprophyticus ATCC 49453", "type": "cell-based", "details": "ATCC 49453", "summary_of_the_method": "as §2"}, "[7]": {"system": "Staphylococcus saprophyticus ATCC 15305", "type": "cell-based", "details": "ATCC 15305", "summary_of_the_method": "as §2"}, "SA4299": {"system": "SA4299", "type": "cell-based", "details": "Table 11", "summary_of_the_method": "as §2"}, "SE12228": {"system": "SE12228", "type": "cell-based", "summary_of_the_method": "as §2"}, "VRE 1002": {"system": "VRE 1002", "type": "cell-based, Enterococcus faecalis", "summary_of_the_method": "as §2"}, "VRE 1008": {"system": "VRE 1008", "type": "cell-based, Enterococcus faecalis", "summary_of_the_method": "as §2"}, "VRE 1004": {"system": "VRE 1004", "type": "cell-based, Enterococcus faecalis", "summary_of_the_method": "as §2"}, "VRE 1001": {"system": "VRE 1001", "type": "cell-based, Enterococcus faecalis", "summary_of_the_method": "as §2"}, "[8]": {"system": "human lung epithelial cell line A549", "experiment": "Cytotoxicity in A549 cells (MTS assay, high content imaging)", "details": "A549; 24 h", "protocol": "(§3) It was important to evaluate the cytotoxicity of Compound 26 on mammalian cells prior to in vivo studies. The cytotoxicity of Compound 26 in human lung epithelial cell line A549 and primary dermal fibroblasts (hDFs) was determined. Both of these cell culture models are already established for evaluation of cytotoxicity of antimicrobial peptides.\n(§4) The stock solution of Compound 26 (500 μg/ml) was prepared fresh by directly dissolving Compound 26 in cell culture medium and used. Cells were treated with dimethyl sulfoxide (DMSO, 0.1% v/v) or nocodazole (5 μg/ml dissolved in DMSO) as controls. At the end of the treatment period, metabolic activities of cells were quantified by MTS-based cell viability assay. […] After 24 h treatment with Compound 26, A549 cells (c) and hDFs (d) were fixed, fluorescently stained with rhodamine-phalloidin (red), alexa fluor 488 conjugated anti-α-tubulin (green) and Hoechst 33342 (blue) and imaged using IN Cell Analyzer 2200 automated microscope. Representative images of cells treated with Compound 26 (62.5 μg/ml for 24 h) or nocodazole (10 μg/ml, toxicity control) are shown in FIG. 2 c,d."}, "[9]": {"system": "human primary dermal fibroblasts (hDFs)", "experiment": "Cytotoxicity in primary dermal fibroblasts (MTS assay, high content imaging)", "details": "hDFs; 24 h", "protocol": "as §3, §4"}, "[10]": {"system": "Staphylococcus aureus ATCC 29213", "details": "reported for a teixobactin analogue; cited from earlier work"}},
  "note": "Bridge positions count the residues as written; N and C are the ends. Square brackets hold non-standard residues; d marks the D form. Peptide text beside a SMILES is read from it. dNMeF = CN[C@H](Cc1ccccc1)C(=O)O",
  "data": [
    {"molecule": "CC[C@@H](C)[C@@H](NC(=O)[C@@H](CCCNC(=N)N)NC(=O)[C@H](CCCNC(=N)N)NC(=O)[C@@H](NC(=O)[C@@H](Cc1ccccc1)NC)[C@@H](C)CC)C(=O)N[C@H](C(=O)N[C@@H](CO)C(=O)N[C@H]1C(=O)N[C@@H](CCCNC(=N)N)C(=O)N[C@@H](CC(C)C)C(=O)N[C@@H]([C@@H](C)CC)C(=O)O[C@H]1C)[C@@H](C)CC", "note": "[Compound 31, Arg3-D-Arg4-Arg9-Leu10-teixobactin] (H-[dNMeF]IR[dR][dI]IS[dT]RLI; ester 8-C)", "values": [
      {"measurement": "MIC in Enterococcus", "setting": "Enterococcus", "value": "2 to 8", "unit": "µg/mL"},
      {"measurement": "MIC against MRSA ATCC 33591", "setting": "MRSA ATCC 33591", "value": 1, "unit": "µg/mL"},
      {"measurement": "MIC", "setting": "MRSA DM21455 (eye)", "value": 2, "unit": "µg/mL"},
      {"measurement": "MIC", "setting": "VRE ATCC 700802", "value": 4, "unit": "µg/mL"},
      {"measurement": "MIC against Staphylococcus aureus ATCC 29213", "setting": "[1]", "value": 1, "unit": "µg/mL"},
      {"measurement": "MIC", "setting": "MRSA DR 42412 (sputum)", "value": 2, "unit": "µg/mL"},
      {"measurement": "MIC", "setting": "VRE ATCC 29212", "value": 4, "unit": "µg/mL"},
      {"measurement": "MIC", "setting": "MRSA ATCC 700699", "value": 2, "unit": "µg/mL"},
      {"measurement": "MIC", "setting": "MRSA 1003", "value": 2, "unit": "µg/mL"},
      {"measurement": "MIC", "setting": "[2]", "value": "<0.0625", "unit": "µg/mL"},
      {"measurement": "MIC", "setting": "[3]", "value": 1, "unit": "µg/mL"},
      {"measurement": "MIC", "setting": "[4]", "value": "<0.0625", "unit": "µg/mL"},
      {"measurement": "MIC", "setting": "[5]", "value": "<0.0625", "unit": "µg/mL"},
      {"measurement": "MIC", "setting": "[6]", "value": "<0.0625", "unit": "µg/mL"},
      {"measurement": "MIC", "setting": "[7]", "value": 0.25, "unit": "µg/mL"},
      {"measurement": "MIC", "setting": "SA4299", "value": 1, "unit": "µg/mL"},
      {"measurement": "MIC", "setting": "SE12228", "value": "<0.0625", "unit": "µg/mL"},
      {"measurement": "MIC", "setting": "VRE 1002", "value": 8, "unit": "µg/mL"},
      {"measurement": "MIC", "setting": "VRE 1008", "value": 8, "unit": "µg/mL"},
      {"measurement": "MIC", "setting": "VRE 1004", "value": 4, "unit": "µg/mL"},
      {"measurement": "MIC", "setting": "VRE 1001", "value": 2, "unit": "µg/mL"}
    ]},
    {"molecule": "COC(=O)Nc1nc2ccc(C(=O)c3cccs3)cc2[nH]1", "note": "[nocodazole, reference compound]", "values": [
      {"measurement": "cell morphology, high content images", "setting": "[8]", "value": "substantial loss of adhered cells"},
      {"measurement": "cell morphology, high content images", "setting": "[9]", "value": "substantial loss of adhered cells"}
    ]},
    {"molecule": "Lys3-D-Lys4-Lys10-teixobactin", "values": [
      {"measurement": "reported MIC against Staphylococcus aureus ATCC 29213", "setting": "[10]", "value": 8, "unit": "µg/mL"}
    ]}
  ]
}
